Columns and labels:
[1] = biological target: T1, GV A105V/I109V mutant protease (Norovirus, UniProt Q80J95, A1099V/I1103V); assay: Cell-based FRET assay, GV A105V/I109V protease; set-up: species or system murine norovirus (MNV) GV (DQ285629)
T1 construct: plasmids expressing norovirus protease from GI.1 (M87661), GII.4 (DQ658413), or GV (DQ285629) norovirus; expressed in transfected cells; host or cells: HEK293T
T1 sequence (Q80J95 995-1177 A1099V/I1103V): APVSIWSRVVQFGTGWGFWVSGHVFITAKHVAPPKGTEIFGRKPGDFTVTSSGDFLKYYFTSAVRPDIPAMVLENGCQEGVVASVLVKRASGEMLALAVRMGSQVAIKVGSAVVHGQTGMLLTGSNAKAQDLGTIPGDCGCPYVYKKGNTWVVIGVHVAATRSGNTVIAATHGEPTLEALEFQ
From the text: The generation of plasmids expressing norovirus protease from GI.1 (M87661), GII.4 (DQ658413), or GV (DQ285629) norovirus and FRET assay constructs has been described previously ([18]). The plasmids carrying GI, GII, and GV proteases with the A105V, I109V, or A105V/I109V mutation were generated from the wild-type (WT) protease constructs described above by the QuikChange site-directed mutagenesis method. Mutant MNV genomes for reverse genetics were generated by two-step PCR mutagenesis of the WT MNV genome (pT7 MNV 3RZ) construct as described previously ([27]). The primers used for generation of the plasmids are listed in Tables S1 and S2 in the supplemental material.
The YFP/CFP ratio was used to determine FRET efficiency, as described previously ([18], [40]). Briefly, HEK293T cells were plated into black 96-well cell culture microplates (Greiner Bio-One) at a density of 5 × 10^4 cells/well in 100 μl of DMEM containing 10% fetal bovine serum with or without various concentrations of rupintrivir and then incubated for 4 h in a CO2 incubator at 37°C. […] The plates were then analyzed on a SpectraMax i3 instrument in fluorescence mode, with excitation set at 434 nm and the reading emissions set at 477 nm (CFP) and 527 nm (YFP). The background fluorescence from wells transfected with pcDNA3.1 was determined and subtracted. […]

[2] = test system: Norwalk virus replicon; assay: Norwalk virus replicon RNA level in HGT-NV cells by qRT-PCR; type: cell-based, Human norovirus (HuNoV) GI
Description: A human gastric tumor-1 (HGT-1) cell line ([29]) was used to establish a human norovirus replicon-harboring HGT (HGT-NV) cell line. In brief, viral protein genome (VPg)-linked RNA was isolated from BHK cells containing the Norwalk virus GI replicon and transfected into HGT-1 cells. HGT-NV replicon cells were selected in G418 (1 mg/ml), and limiting dilution was used to identify a clone with high viral RNA levels. The generated HGT-NV replicon cells were grown and maintained under G418 selection. The replicon-containing BHK cell line was generated by the transfection of in vitro-transcribed capped RNA from the cDNA construct of the Norwalk virus replicon ([9]), kindly provided by Kim Green (National Institutes of Health, Bethesda, MD, USA), into baby hamster kidney cells. Human embryonic kidney HEK293T cells were obtained from ATCC. The murine microglial BV-2 cell line was provided by Jennifer Pocock (University College London, London, UK). […]
The inhibitory effect of rupintrivir on HuNoV replication was assessed by quantification of the levels of GI NuNoV RNA and β-actin RNA as the reference gene. […] The real-time quantitative reverse transcription-PCR (qRT-PCR) assay was performed by using a One-Step Plus qRT-PCR kit according to the protocol of the manufacturer (Primer Design). […] Relative quantification was performed using the 2^−ΔΔCT threshold cycle (CT) method ([38]). […]

CCOC(=O)/C=C/[C@H](C[C@@H]1CCNC1=O)NC(=O)[C@@H](CC(=O)[C@@H](NC(=O)c1cc(C)on1)C(C)C)Cc1ccc(F)cc1 [rupintrivir, Rupintrivir]
IC50 ([1]; HEK293T cells, GV NS1/2-NS3 FRET substrate): 2300 ± 300 nM
fold increase in IC50 ([1]; vs GV WT protease): 2.3 fold
selectivity index (CC50/EC50) ([2]; HGT-NV cells): > 77
EC50 ([2]; Norwalk virus, 72 h, read-out: 50% effective concentration (EC50), replicon RNA): 1300 ± 100 nM

From paper PMC5923142, “Selection and Characterization of Rupintrivir-Resistant Norwalk Virus Replicon Cells In Vitro” (Antimicrobial Agents and Chemotherapy, 2018)
